The values that follow come from article PMC2426711 (AIDS Research and Therapy, 2008).

Read-outs that look alike come from different tables or passages of the source.

For data set [1], the system named is HIV-1. Details: method as in PMID 15790304. The following applies: cited from earlier work.
Data set [2] deals with HIV-1 DNA (R5-HIV-1Ba-L or X4-HIV-1NDK). Kind of data set: HIV-1 DNA content of primary cells by real time PCR. The following applies: all primary cells, whatever the viral strain; increasing doses. For orientation: Real-time PCR tracks product formation cycle by cycle.
Method: Genomic DNA was isolated from HIV-infected macrophages by using extraction protocol on a silica column system according to the manufacturer's instructions (Qiagen DNA minikit, AG, Basel, Switzerland). […] The LC-PCR master mix contained 1 × Fast-Start Taq DNA polymerase reaction buffer (Roche Applied Science), 3 mM MgCl2, 0.3 μM of each primer and probe. Cycling conditions were as follows: initial denaturation/FastStart Taq DNA polymerase activation at 95°C/10 minutes, 45 cycles of denaturation at 95°C/10 seconds, annealing and extension at 60°C/30 seconds with a ramp of 5°C/seconds. The first PCR cycle allowing fluorescence detection permitted to quantify HIV-1 DNA by reference to a standard curve (dilutions of 8E5 cell DNA). All reactions were performed in triplicate and tested in the same assay. […] The normalized value of cell-associated HIV-1 DNA loads corresponding to the ratio [(HIV-1 copy number/albumin copy number) × 2 × 10^6], was finally expressed as the number of HIV-1 DNA copies per 10^6 cells.
Monocyte-derived macrophages (A), monocyte-derived dendritic cells (B) and T cells (C) were incubated with R5 or X4 viruses in the presence of increasing concentrations of C14 or an unique dose of T 20 (5 μM) for 3 hours at 37°C. […] DNA was extracted and the viral DNA was quantified by real time PCR. […]
Data set [3] deals with X4-tropic HIV-1NDK. Nature of the data set: Inhibition of infection of dendritic cells by X4-HIV-1NDK (p24 ELISA). It counts as cell-based. The following applies: DC, mean ± 1 SD. How it is done:
(§1) Primary X4-HIV-1NDK was grown in peripheral blood lymphocytes (PBL) of healthy donors stimulated with PHA and rhIL-2. R5-HIV-1Ba-L was amplified in monocyte-derived macrophages of healthy donors.
(§2) Cells were washed 2 times after 6 days of differentiation and seeded into 96-well culture plates (5 × 10^5 cells/well). HIV-1 (1 ng p24 antigen/ml) and increasing concentrations of molecules were added on cells and incubated for 3 hours at 37°C in a 5% CO2 atmosphere. Each sample was performed in triplicate. After 4 washes to remove exceeding virus, cells were cultured for 3 days. […] In this last case, supernatants were harvested and viruses produced were lysed by incubation for 45 minutes at 37°C with 1% Triton X-100.
For orientation: ELISA stands for enzyme-linked immunosorbent assay.

Data set [4] concerns HIV-1.
The test system of data set [5] is X4-tropic HIV-1NDK. Nature of the data set: Inhibition of infection of T cells by X4-HIV-1NDK (p24 ELISA). It counts as cell-based. The following applies: mean ± 1 SD. How it is done: as §1, §2
Data set [6] concerns R5-tropic HIV-1Ba-L. Nature of the data set: Inhibition of infection of dendritic cells by R5-HIV-1Ba-L (p24 ELISA). It is filed as cell-based. The note with it: DC, mean ± 1 SD. The procedure: as §1, §2
A further data set concerns X4-tropic HIV-1. The procedure:
(§3) To assess the transmission of HIV-1 from MDDC to autologous T-cells, MDDC were incubated into 96-well culture plates (10^5 cells/well) and infected with HIV-1 (1 ng p24) in the presence of increasing concentrations of molecules for 3 hours at 37°C in a 5% CO2 atmosphere. Cells were washed four times and autologous stimulated T cells were added onto infected MDDC at a MDDC/T-cell ratio of 1/5 for 6 days. Each sample was performed in triplicate. Culture supernatants were harvested every 3 days and fresh medium was added. Supernatants were inactivated with 1% Triton X-100. The viral production by T lymphocytes was evaluated the sixth day of the co-culture by measurement of HIV-1 p24 antigen in supernatants using capture ELISA.
(§4) Culture supernatants were harvested after 7 of culture for measurement of HIV p24 antigen.

The next data set relates to R5-tropic HIV-1. The procedure:
as §3, §4

In data set [7] the test system is R5-tropic HIV-1Ba-L particles.
Method: (§5) As expected, no viral production was detected in control wells containing triton X100-treated HIV-1 and activated PBL (negative control).
(§6) HIV-1 was adsorbed on poly-L-lysin pre-coated wells (Greiner Bio-One) at 4°C overnight and further incubated with C14 for 1 h. In positive and negative control wells, 1% Triton X-100 and medium were added, respectively. […] After 6 days, viral production was assessed by p24 Ag capture ELISA.
In data set [8] the test system is R5-tropic HIV-1Ba-L. The note with it: 1 μM, 3 hours.
Method: Monocytes or PBL (10E5 cells) were adsorbed on a microscopy-adapted slide for 6 days. MDDC, MDM or PBL were infected in the presence of C14 diluted at 10 μM for 3 hours. Cells were then washed and incubated with or without polyclonal antibodies anti-gp160 (50 μg/ml) at 4°C for 30 minutes. Cells were washed with PBS 0.01% azide 0.5% BSA, and were labelled with polyclonal mouse anti-human IgG-FITC (Jackson ImmunoResearch Laboratories, West Grove, PA, USA) and then fixed with 1% paraformaldehyde. The coverslides were mounted in Mowiol (Sigma-Aldrich). The observations were made by sequential acquisition with a Zeiss LSM510 System, mounted on an Axiovert 100 M optical microscope (Carl Zeiss AG, Oberkochen, Germany), using a planapochromat ×63, 1.4 numerical aperture oil immersion objective. Optical sections were acquired, each one with an image resolution of 512 × 512 pixels.
Cells were incubated with R5-tropic HIV-1Ba-L in the presence of 1 μM of C14 for 3 hours. […]
Monocyte-derived macrophages, monocyte-derived dendritic cells and T cells were incubated with R5 viruses in the presence of increasing concentrations of C14 for 3 hours at 37°C. […] Cells were then analysed by confocal microscopy. […] 30 cells were at least analyzed for each donor.
The test system of data set [9] is R5-tropic HIV-1Ba-L. Kind of data set: Inhibition of infection of macrophages by R5-HIV-1Ba-L (p24 ELISA). It counts as cell-based. The note with it: MΦ, mean ± 1 SD. The procedure:
as §1, §2

Another data set deals with CD4, CXCR4 and CCR5. The note with it: primary cells treated with C14.
Data set [10] relates to X4-tropic HIV-1NDK. Kind of data set: Inhibition of infection of macrophages by X4-HIV-1NDK (p24 ELISA). It is filed as cell-based. The note with it: MΦ, mean ± 1 SD. How it is done:
as §1, §2

Data set [11] has as its system X4-tropic HIV-1 particles. The following applies: 20 μM.
Method: as §5, §6
The test system of data set [12] is R5-tropic HIV-1Ba-L. Kind of data set: Inhibition of infection of T cells by R5-HIV-1Ba-L (p24 ELISA). It is filed as cell-based. The note with it: mean ± 1 SD. How it is done: as §1, §2
The next data set concerns vaginal mucosa. Details: method as in PMID 11162774. The note with it: vaginal toxicity, New Zealand White rabbit; cited from earlier work.

Method for CD4, CXCR4 and CCR5: Cell surface antigens were analyzed by FACSCalibur (Becton Dickinson, NJ, USA) using monoclonal antibodies (mAbs) conjugated with either fluorescein isothiocyanate (FITC) or phyco-erithryn (PE). Following incubation with different mAbs for 30 min at 4°C, cells were washed with PBS containing azide (0.01%), BSA (0.2%) and fixed using 1% formaldehyde PBS buffer.

Take `C=C(C)[C@@H]1CC[C@]2(C(=O)NCCCCCCCC(=O)N[C@@H](CC(C)C)[C@H](O)CC(=O)O)CC[C@]3(C)[C@H](CC[C@@H]4[C@@]5(C)CC[C@H](O)C(C)(C)[C@@H]5CC[C@]43C)[C@@H]12` [IC9564]: the “inhibition of HIV-1 replication, active concentration” value with HIV-1 [1] was “nanomolar concentrations”.
For the compound `C=C(C)[C@@H]1CC[C@]2(C(=O)O)CC[C@]3(C)[C@H](CC[C@@H]4[C@@]5(C)CC[C@H](OC(=O)CC(C)(C)C(=O)O)C(C)(C)[C@@H]5CC[C@]43C)[C@@H]12` [PA-457], in the data set on HIV-1 [1], the “inhibition of HIV-1 replication, active concentration” value is recorded as “nanomolar concentrations”.
For the compound zinc tetra-ascorbo-camphorate [C14], the “reduction of the HIV-1 DNA content” value in data set [2] was 2–3 log. Moreover, the IC50 (as a rule, the point on the concentration scale where inhibition reaches its midpoint) with X4-tropic HIV-1NDK [3] was 1.8 ± 0.1 µM; with HIV-1 [4] (different primary cells) it was 1 µM; in the data set on X4-tropic HIV-1NDK [5] it was 0.7 ± 0.1 µM; in the data set on R5-tropic HIV-1Ba-L [6] it was 1.3 ± 0.1 µM; with R5-tropic HIV-1Ba-L [9] it was 1.3 ± 1 µM; with X4-tropic HIV-1NDK [10], 0.02 µM. In the data set on R5-tropic HIV-1Ba-L [12], this compound returned a half-inhibitory concentration (IC50) of 0.8 µM. For the same compound, in the data set on HIV-1 [4] (infection of all the primary cells tested), the EC50 (as a rule, the concentration that produces a half-maximal response) was determined as 1 µM. The “inhibition of HIV-1 transfer from DC to T cells” value in the data set with X4-tropic HIV-1 (1 μM) and in the data set with R5-tropic HIV-1 (1 μM) was “about 95%” throughout. For the same compound, the “inhibition of HIV-1 transfer from DC to autologous T cells” value with X4-tropic HIV-1 (low concentrations) and with R5-tropic HIV-1 (low concentrations) was “more than 90%” throughout. Further, in [7], the “HIV-1 production by activated PBL, virus treated versus untreated with C14” value is on record as “similar”. In addition, the “inhibition of entry of viruses” value with R5-tropic HIV-1Ba-L [8] (T cells) is “inhibited the entry of viruses only into T cells”; with R5-tropic HIV-1Ba-L [8] (macrophages and DCs), “unlike in macrophages and DCs”. Moreover, the “cell surface expressions of CD4, CXCR4 and CCR5” value in the data set on CD4, CXCR4 and CCR5 is on record as “not altered”. The “disruption of HIV-1 particles” value in [11] was 58 ± 2%.
For `CCCCCCCCCc1ccc(OCCOCCOCCOCCOCCOCCOCCOCCOCCO)cc1` [nonoxynol-9], the “score of histological changes” value with vaginal mucosa is “about 8 ± 3”.
